Measured values published in patent publication US9340577B2, “HLA binding motifs and peptides and their uses” (priority 1992, dated 2016).
No end group written: not given here.

What was measured:
Assay in all cases: biochemical
Assay type in all cases: binding
A*0202 = A*0202 (Homo sapiens, UniProt P04439, D140Y/D185E/D98H/E176V/E277Q/G131W/G231S/I119L/I121R/I166T/I218V/L180W/L300P/L318F/N151K/N90K/P208A/P217A/Q67R/Q86G/Q94H/R138H/R169H/T345S)
HLA-A*0201 (HLA-A2.1) = HLA-A*0201 (HLA-A2.1) (Homo sapiens, UniProt P04439, D140Y/D185E/D98H/E176V/E277Q/G131W/G231S/I119V/I121R/I166T/I218V/L300P/L318F/N151K/N90K/P208A/P217A/Q86G/Q94H/R138H/R169H/T345S)
A*0203 = A*0203 (Homo sapiens, UniProt P04439, A173T/D140Y/D185E/D98H/E277Q/G131W/G231S/I119V/I121R/I166T/I218V/L180W/L300P/L318F/N151K/N90K/P208A/P217A/Q86G/Q94H/R138H/R169H/T345S)
A*6802 = A*6802 (Homo sapiens, UniProt P04439, A269V/D140Y/D185E/E176V/E277Q/E87N/F33Y/G231S/I121R/I166T/I218V/L180W/L300P/L318F/N151K/P208A/P217A/Q86R/R138H/R169H/S129P/T345S/V36M)
A*0206 = A*0206 (Homo sapiens, UniProt P04439, D140Y/D185E/D98H/E176V/E277Q/F33Y/G131W/G231S/I119V/I121R/I166T/I218V/L300P/L318F/N151K/N90K/P208A/P217A/Q86G/Q94H/R138H/R169H/T345S)

Compound	IC50 (A*0202) [nM]	IC50 (HLA-A*0201 (HLA-A2.1)) [nM]	IC50 (A*0203) [nM]	IC50 (A*6802) [nM]	IC50 (A*0206) [nM]
CC[C@H](C)[C@H](NC(=O)[C@@H](NC(=O)[C@H](CC(C)C)NC(=O)[C@@H](N)CS)[C@@H](C)O)C(=O)N[C@@H](Cc1c[nH]cn1)C(=O)N[C@@H](Cc1ccc(O)cc1)C(=O)N[C@@H](CC(N)=O)C(=O)N[C@@H](Cc1ccc(O)cc1)C(=O)N[C@H](C(=O)O)C(C)C [Peptide 1323.07]	216	270	65	640	
CC[C@H](C)[C@H](NC(=O)[C@@H](NC(=O)[C@@H](NC(=O)[C@@H](NC(=O)[C@@H](NC(=O)[C@@H](NC(=O)[C@@H](N)CCCNC(=N)N)[C@@H](C)O)[C@@H](C)O)C(C)C)[C@@H](C)O)[C@@H](C)O)C(=O)N[C@H](C(=O)N[C@H](C(=O)N[C@@H](Cc1ccc(O)cc1)C(=O)N[C@H](C(=O)O)C(C)C)C(C)C)[C@@H](C)O [Peptide 9013.0304]	9.6			0.18	73
CC[C@H](C)[C@H](NC(=O)CN)C(=O)N[C@@H](CCSC)C(=O)N[C@H](C(=O)NCC(=O)N[C@H](C(=O)N[C@@H](CC(C)C)C(=O)N[C@H](C(=O)NCC(=O)N[C@H](C(=O)N[C@H](C(=O)O)C(C)C)C(C)C)C(C)C)C(C)C)[C@@H](C)CC [Peptide 9013.0344]		563	82		912
AIFGVNPTI [Peptide 86.0178]	13	1820	324	3540	
ALDGNDISV [Peptide 1578.33]	41	40		> 20000	48
FLDAFKKFL [Peptide 1578.31]	25	158		> 20000	420
FLGAFKKFL [Peptide 1578.22]	10	5840		> 20000	11800
FLKGCIISYV [Peptide 1578.43]	0.85	341	2	795	
GLMIGVLVGVA [Peptide 9013.0345]	39	2190		> 20000	3300
GLNLSLSCHAA [Peptide 9013.0312]	47	1420		> 20000	> 20000
GVNLSLSCHAV [Peptide 9013.0311]	63	2090	2590	947	
ILAEAMSKA [Peptide 1516.09]	3.5	72	2.8	2650	
ILNDTGFYT [Peptide 9013.0036]	14	213		> 20000	3810
ILNDTGFYTL [Peptide 9013.0150]	2.1	152	59	11300	
ILQNDTGFYT [Peptide 9013.0147]	187	902		> 20000	11100
ILYPNASLL [Peptide 9013.0030]	1.8	130	4.2	14700	
IQNDTGFYT [Peptide 9013.0034]	3740	> 20000		> 20000	474
KLITVSAEL [Peptide 9013.0084]	3.3	71	27	> 20000	
KLLSKLLCV [Peptide 1578.03]	68	55	36	> 20000	
KLMSNLLSI [Peptide 1578.21]	2.7	16		> 20000	34

Compound	IC50 (A*0202) [nM]	IC50 (HLA-A*0201 (HLA-A2.1)) [nM]	IC50 (A*0203) [nM]	IC50 (A*6802) [nM]	IC50 (A*0206) [nM]
KLTPLCVIL [Peptide 1516.15]	74	356	968	> 20000	
KLTQLCVTL [Peptide 1537.02]	2.7	24		> 20000	131
KLTSLCVTL [Peptide 1537.03]	29	91	91	> 20000	
LLFWNPPTT [Peptide 9013.0007]	15	11	4.3	> 20000	
LLQQYCLYL [Peptide 1578.01]	11	224	17		
LLTFWNPPTTV [Peptide 9013.0259]	67	762	58	7540	
LQLSNDNRV [Peptide 9013.0072]	1700	> 20000	> 20000	> 20000	
LTIESTPFNVV [Peptide 9013.0267]	188	1090		123	77
MLGVLVGVALI [Peptide 9013.0349]	432	4960		8790	4730
MTANPPIPV [Peptide 1539.01]	7.2	2.3	2.5	2	
NLAEGKEVLLL [Peptide 9013.0271]	18	7590		> 20000	> 20000
QQHTQVLFV [Peptide 9013.0102]	1420	2100	80	> 20000	
RILQQPLFI [Peptide 1545.03]	9910	140		> 20000	872
RLENAILFTV [Peptide 1593.60]	24		160	15800	
RLIIGYVIGT [Peptide 9013.0140]		1870	636	14600	
RLYVCGIQNSV [Peptide 9013.0335]	6.3	170	24	> 20000	
RMLQQLLFT [Peptide 1525.17]	1870		493		
RTLQQLMFI [Peptide 1525.23]	1820			> 20000	55
SLACSWGMVV [Peptide 1578.02]	22	805	8.5		
SLLTFWNPPV [Peptide 9013.0118]	76	208	159	24	

Compound	IC50 (A*0202) [nM]	IC50 (HLA-A*0201 (HLA-A2.1)) [nM]	IC50 (A*0203) [nM]	IC50 (A*6802) [nM]	IC50 (A*0206) [nM]
TLESTPFNV [Peptide 9013.0012]	19	216	221	241	
TTQDVSLEV [Peptide 1593.54]	2350	1340		9	674
TTVTTITVYV [Peptide 9013.0192]	21	1040	326	17	
TVQDVSLEV [Peptide 1593.55]	483		56	15	
VAWDSVYYM [Peptide 1578.46]	603		1330	5150	
VAWDSVYYV [Peptide 1593.57]	35	4.4		48	3.3
VLAEAMSKA [Peptide 1539.07]	3.4	69	7.6	4580	
VLEGKEVLL [Peptide 9013.0019]	18	2910		> 20000	> 20000
VLFTCEPEA [Peptide 9013.0089]	70	240		> 20000	4570
VLYGPDAPV [Peptide 9013.0052]	2.4	48	19	3260	
VQWAYDHDI [Peptide 86.0205]	6840	6900	> 20000	> 20000	
VQWAYDNDV [Peptide 86.0190]	89	4430		3590	428
VQWAYDNEL [Peptide 86.0196]	190			> 20000	1100
VVWDSIYYI [Peptide 1578.53]	39	13		52	11
WLNGQSLPV [Peptide 9013.0090]	8.6		6.4		
YACFVSNLAV [Peptide 9013.0248]	754	1390		95	71
YIDDYLRNL [Peptide 1578.39]	27		380	> 20000	
YLHNRLVVFT [Peptide 86.0075]	120			1600	15200
YVCGIQNSVSV [Peptide 9013.0337]			159		58
